This is an account of results in publication PMC10388363, “Novel 1,4-Dihydropyridines as Specific Binders and Activators of SIRT3 Impair Cell Viability and Clonogenicity and Downregulate Hypoxia-Induced Targets in Cancer Cells” (Journal of Medicinal Chemistry, 2023).

The structures appear in SMILES notation.

The subject of assay [1] is HIF-1α, EPAS-1, and CA-IX protein expression in MDA-MB-231. As to the kind of experiment: Western blot of HIF-1α, EPAS-1 and CA-IX in MDA-MB-231 cells under hypoxia. The format is cell-based, human. As to conditions: MDA-MB-231, 50 μM, 48 h, hypoxia. The procedure: Based on these findings, we decided to assess the ability of the SIRT3 activators 3a–d to impair HIF-1α, EPAS-1, and CA-IX protein expression in CAL-62 (Figure 10A–F) and MDA-MB-231 (Figure 11A–F) cell lines treated with the compounds at 50 μM for 48 h and under hypoxia conditions.
Breast cancer cell line MDA-MB-231, anaplastic thyroid cancer cell line CAL-62 and human keratinocytes HaCaT were purchased from ATCC and were cultured in RPMI 1640 medium (R0883 Sigma Aldrich-MERCK) (MDA-MB-231 and CAL-62) or DMEM medium (11965092, Gibco) supplemented with 10% fetal bovine serum (Sigma-Aldrich-MERCK, F9665), 2 mM glutamine (G7513; Sigma-Aldrich-MERCK), 100 units/mL penicillin and 0.1 mg/mL streptomycin (P0781; Sigma-Aldrich-MERCK). Adherent cells were detached by Trypsin–EDTA solution (TA049; Sigma-Aldrich-MERCK). Cells were maintained at 37 °C in humidified incubator with 5% CO2. Cells were treated with […] (CoCl2) (Merck; C8661) dissolved in distilled, sterile water for 24 h to induce hypoxia (200 μM). Hypoxic and normoxic cells were also treated with 10/50 μM of the indicated compounds (dissolved in DMSO) for 48 h, maintaining the CoCl2 in the culture medium for hypoxic conditions. SIRT3 inhibitor 3-TYP was dissolved in DMSO and added to a final concentration of 1 μM for 24 and/or 48 h.
The following antibodies were used in this study: ACTB (Merck; A5316), HIF1-α (Cell Signaling; 14179), HIF2/EPAS-1 (Santa Cruz Biotechnology sc-13596), HXKII (Santa Cruz Biotechnology sc-6521), CAIX (Novus Biotechnology NB100-417), SIRT3 (Cell Signaling; 2627S), MnSOD (Abcam ab13533), MnSOD K68 (Abcam ab137037), MnSOD K122 (Abcam ab214675), peroxidase-conjugated AffiniPure Goat Anti-Rabbit IgG (H + L) (Jackson ImmunoResearch; 111-035-003), and peroxidase-conjugated AffiniPure Goat Anti-Mouse IgG (H + L) (Jackson ImmunoResearch; 115-035-062).
Treated and untreated cells were collected and centrifuged at 3000 rpm for 5 min. After removing the supernatant, cells were lysed in 70 μL of lysis buffer containing: 50 mM Tris-Cl (Merck; 93352), 250 mM sodium chloride (NaCl, Merck; S7653), 5 mM ethylenediaminetetraacetic acid (EDTA; Merck; E6758), 0.1% Triton X-100 and 0.1 mM dithiothreitol (Merck; D9163) plus 1 mM phenylmethylsulfonyl fluoride (PMSF, Merck; 93482), protease inhibitor cocktail (PI; Merck; P8340), 1 mM sodium orthovanadate (NA3VO4, Merck; S6508), and 10 mM sodium fluoride (NaF, Merck; 201154) (lysis buffer). After 30 min on ice, samples were centrifuged at 13,000 rpm for 10 min at 4 °C, and the supernatants collected. Protein concentration was determined by the Bradford assay (Bio-Rad; 500-0205). The equivalent of 15 or 50 μg of protein was boiled for 5 min, electrophoresed onto denaturing SDS-PAGE gel, and transferred onto a […] nitrocellulose membrane (Bio-Rad; 162-0115). After blocking with 5% milk, membranes were incubated with the appropriate primary antibody overnight. The next day, after three washes with 0.1% Tween 20 (Merck; P9416) in PBS (PBST) for 30 min at rt, membranes were incubated with the appropriate secondary antibody for 1 h at rt. After three more washes in PBST, the detection of the relevant protein was assessed by enhanced chemiluminescence (Lite Ablot TURBO, Euro-Clone; EMP012001). Densitometric analysis of the bands, relative to ACTB, was performed using ImageJ Software v1.51 (NIH, Bethesda, MD, USA).

In a further assay the target is T1, human SIRT5 (Homo sapiens, UniProt Q9NXA8).
T1 construct: pET151D/Topo (Sirt3-114-380 and Sirt5-34-302); His tag (N, cleaved yes); made in house; host or cells: Escherichia coli
T1 sequence (Q9NXA8 34-302): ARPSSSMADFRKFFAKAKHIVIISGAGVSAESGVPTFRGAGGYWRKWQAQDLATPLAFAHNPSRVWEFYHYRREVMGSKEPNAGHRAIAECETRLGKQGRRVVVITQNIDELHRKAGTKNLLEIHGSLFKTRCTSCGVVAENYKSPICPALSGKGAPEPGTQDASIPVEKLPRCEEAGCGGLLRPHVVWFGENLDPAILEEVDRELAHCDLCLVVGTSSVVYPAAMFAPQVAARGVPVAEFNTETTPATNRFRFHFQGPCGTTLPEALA
As to the kind of experiment: PncA/GDH-coupled deacylation assay, SIRT5 activation (CPS1-succK537 substrate). The assay is classed as biochemical. As to conditions: for effect on SIRT5: 10 μM compound; for SIRT5 activation: 100 μM compound. The method, then:
To avoid artifacts and other non-specific effects, instead of the “Fluor-de-Lys” (FdL) substrate, we used a PncA/GDH-coupled deacylation assay by measuring the NADPH oxidation to NADP^+ that relies on isoform-specific non-modified physiological acetyl or succinyl substrates [p53-acK381 for SIRT1, α-tubulin-[…] for SIRT2, acetyl-CoA synthetase 2 (ACS2)-acK642 for SIRT3, and CPS1-succK537 for SIRT5].[59] The assays were carried out using the 1,4-DHP derivatives 2a–n and 3a–d against SIRT3, including the prototype compounds 2 and 3 as positive controls.
N-terminally his-tagged human sirtuins were expressed in Escherichia coli using constructs in pET15b (Sirt1) or pET151D/Topo (Sirt3-114-380 and Sirt5-34-302).[4],[59],[61] Sirt2-43-356 was expressed from a modified pET19b containing a TEV protease cleavage site and an N-terminal SUMO-tag.[59],[79] Proteins were expressed and purified as described elsewhere.[59],[61],[79]−[81] In brief, proteins were expressed in E. coli, crude extracts were cleared by centrifugation, and the proteins were affinity purified using NiNTA beads.
Sirtuin deacylation activities were analyzed by using a coupled enzymatic assay as described in.[59],[82] For initial modulation screenings, substrate peptide specificity analysis, and compound titrations, 1.5 μM sirtuin was incubated with 50 μM substrate peptide and 100 μM NAD^+ in absence or presence of 10 μM, 100 μM or the indicated concentration of 1,4-DHP at a final DMSO concentration of 5%. For kinetic experiments, 1.5 μM sirtuin was incubated with saturating concentrations of either substrate peptide (0.4 mM) or NAD^+ (2 mM), with the second substrate’s concentration being varied in absence or presence of 200 μM 1,4-DHP at a final concentration of 5% DMSO. Potential 1,4-DHP effects on the coupled enzymes GDH and nicotinamidase were tested in control assays containing 50 μM NAM instead of the substrate peptide.

With `CCOC(=O)C1=CN(C(=O)c2cc(OC)cc(OC)c2)C=C(C(=O)OCC)C1c1ccccc1` [Compound 3d, Diethyl 1-(3,5-dimethoxybenzoyl)-4-phenyl-1,4-dihydropyridine-3,5-dicarboxylate], in assay [1], the CA-IX protein expression result is “most potent”, the EPAS-1 protein levels entry is on record as “significantly reduced” and the HIF-1α protein levels result is on record as “significantly reduced”. For the same compound, the “effect on SIRT5” value at human SIRT5 is reported as “negligible effects”.

Regarding `CCOC(=O)C1=CN(C(=O)c2cccc(OC)c2)C=C(C(=O)OCC)C1c1ccccc1` [Compound 3a, Diethyl 1-(3-methoxybenzoyl)-4-phenyl-1,4-dihydropyridine-3,5-dicarboxylate], on human SIRT5, the “effect on SIRT5” value is listed as “negligible effects” and the SIRT5 activation is listed as 144%.

As for `CCOC(=O)C1=CN(C(=O)c2ccc(OC)c(OC)c2)C=C(C(=O)OCC)C1c1ccccc1` [Compound 3c, Diethyl 1-(3,4-dimethoxybenzoyl)-4-phenyl-1,4-dihydropyridine-3,5-dicarboxylate], in assay [1], the EPAS-1 protein levels entry is “significantly reduced” and the HIF-1α protein levels result is given as “significantly reduced”. Besides, on human SIRT5, the “effect on SIRT5” value is given as “negligible effects” and the SIRT5 activation came out at 160%.
